# Data as given in ChEMBL document CHEMBL3885881, “DrugMatrix”.
# Organism: Rattus norvegicus
# Assay: DrugMatrix - Regimen: Daily Repeat
# Assay type: toxicity, organism-based, Sprague-Dawley
# Set-up: regimen Daily Repeat, gender Male, age 6-8 weeks
# Settings: in vivo, po, route oral GAVAGE, vehicle .5 % CMC; for BASOPHIL / EOSINOPHIL / ERYTHROCYTE COUNT / HEMATOCRIT / HEMOGLOBIN / LEUKOCYTE COUNT / LYMPHOCYTE / MEAN CORPUSCULAR HEMOGLOBIN / MEAN CORPUSCULAR HEMOGLOBIN CONCENTRATION / MEAN CORPUSCULAR VOLUME / MONOCYTE / NEUTROPHIL / PLATELET COUNT: tissue Blood; for ALANINE AMINOTRANSFERASE / ALBUMIN / ALKALINE PHOSPHATASE / ASPARTATE AMINOTRANSFERASE / BLOOD UREA NITROGEN / CHLORIDE / CHOLESTEROL / CREATINE PHOSPHOKINASE / CREATININE / GLUCOSE / PHOSPHORUS / POTASSIUM / SODIUM / TOTAL BILIRUBIN / TOTAL PROTEIN: tissue Plasma
# [1] = 0 mg/kg, 72 h, dose level Control, time 3 day
# [2] = 0 mg/kg, 120 h, dose level Control, time 5 day
# [3] = 45 mg/kg, 72 h, dose level Low, time 3 day
# [4] = 45 mg/kg, 120 h, dose level Low, time 5 day
smiles,measurement,setting,value
Nc1ccc(C(=O)O)c(O)c1 [AMINOSALICYLIC ACID],BASOPHIL,[1],0%
same,EOSINOPHIL,[1],0%
same,ERYTHROCYTE COUNT,[1],6.34 x10E6/uL
same,HEMATOCRIT,[1],37.62%
same,HEMOGLOBIN,[1],14.82 G/DL
same,LEUKOCYTE COUNT,[1],11.18 x10E3/uL
same,LYMPHOCYTE,[1],87.5%
same,MEAN CORPUSCULAR HEMOGLOBIN,[1],23.48 pg
same,MEAN CORPUSCULAR HEMOGLOBIN CONCENTRATION,[1],39.5 G/DL
same,MEAN CORPUSCULAR VOLUME,[1],59.45 fL
same,MONOCYTE,[1],1.67%
same,NEUTROPHIL,[1],10.83%
same,PLATELET COUNT,[1],1074.83 x10E3/uL
same,ALANINE AMINOTRANSFERASE,[1],36.5 u/L
same,ALBUMIN,[1],3.9 G/DL
same,ALKALINE PHOSPHATASE,[1],370.17 u/L
same,ASPARTATE AMINOTRANSFERASE,[1],63.17 u/L
same,BLOOD UREA NITROGEN,[1],16.83 mg/dL
same,CHLORIDE,[1],99.33 MEQ/L
same,CHOLESTEROL,[1],64.33 mg/dL
same,CREATINE PHOSPHOKINASE,[1],127 u/L
same,CREATININE,[1],0.55 mg/dL
same,GLUCOSE,[1],173.5 mg/dL
same,PHOSPHORUS,[1],10.08 mg/dL
same,POTASSIUM,[1],6.23 MEQ/L
same,SODIUM,[1],143.5 MEQ/L
same,TOTAL BILIRUBIN,[1],0.52 mg/dL
same,TOTAL PROTEIN,[1],6.35 G/DL
same,BASOPHIL,[2],0%
same,EOSINOPHIL,[2],0.17%
same,ERYTHROCYTE COUNT,[2],6.12 x10E6/uL
same,HEMATOCRIT,[2],37.08%
same,HEMOGLOBIN,[2],14.82 G/DL
same,LEUKOCYTE COUNT,[2],11.87 x10E3/uL
same,LYMPHOCYTE,[2],83.33%
same,MEAN CORPUSCULAR HEMOGLOBIN,[2],24.25 pg
same,MEAN CORPUSCULAR HEMOGLOBIN CONCENTRATION,[2],39.97 G/DL
same,MEAN CORPUSCULAR VOLUME,[2],60.65 fL
same,MONOCYTE,[2],1.5%
same,NEUTROPHIL,[2],15%
same,PLATELET COUNT,[2],1042.83 x10E3/uL
same,ALANINE AMINOTRANSFERASE,[2],46 u/L
same,ALBUMIN,[2],3.82 G/DL
same,ALKALINE PHOSPHATASE,[2],369.5 u/L
same,ASPARTATE AMINOTRANSFERASE,[2],65 u/L
same,BLOOD UREA NITROGEN,[2],16.33 mg/dL
same,CHLORIDE,[2],100.67 MEQ/L
same,CHOLESTEROL,[2],57.17 mg/dL
same,CREATINE PHOSPHOKINASE,[2],130 u/L
same,CREATININE,[2],0.53 mg/dL
same,GLUCOSE,[2],163.33 mg/dL
same,PHOSPHORUS,[2],9.53 mg/dL
same,POTASSIUM,[2],6.27 MEQ/L
same,SODIUM,[2],144.83 MEQ/L
same,TOTAL BILIRUBIN,[2],0.55 mg/dL
same,TOTAL PROTEIN,[2],6.32 G/DL
same,BASOPHIL,[3],0%
same,EOSINOPHIL,[3],0%
same,ERYTHROCYTE COUNT,[3],6.2 x10E6/uL
same,HEMATOCRIT,[3],36.9%
same,HEMOGLOBIN,[3],14.43 G/DL
same,LEUKOCYTE COUNT,[3],13.37 x10E3/uL
same,LYMPHOCYTE,[3],88%
same,MEAN CORPUSCULAR HEMOGLOBIN,[3],23.3 pg
same,MEAN CORPUSCULAR HEMOGLOBIN CONCENTRATION,[3],39.13 G/DL
same,MEAN CORPUSCULAR VOLUME,[3],59.6 fL
same,MONOCYTE,[3],0.33%
same,NEUTROPHIL,[3],11.67%
same,PLATELET COUNT,[3],1203.67 x10E3/uL
same,ALANINE AMINOTRANSFERASE,[3],39.33 u/L
same,ALBUMIN,[3],3.83 G/DL
same,ALKALINE PHOSPHATASE,[3],358.33 u/L
same,ASPARTATE AMINOTRANSFERASE,[3],67.33 u/L
same,BLOOD UREA NITROGEN,[3],15 mg/dL
same,CHLORIDE,[3],99.33 MEQ/L
same,CHOLESTEROL,[3],71.33 mg/dL
same,CREATINE PHOSPHOKINASE,[3],117 u/L
same,CREATININE,[3],0.53 mg/dL
same,GLUCOSE,[3],180 mg/dL
same,PHOSPHORUS,[3],10.37 mg/dL
same,POTASSIUM,[3],6.03 MEQ/L
same,SODIUM,[3],143 MEQ/L
same,TOTAL BILIRUBIN,[3],0.47 mg/dL
same,TOTAL PROTEIN,[3],6.27 G/DL
same,BASOPHIL,[4],0%
same,EOSINOPHIL,[4],0%
same,ERYTHROCYTE COUNT,[4],5.82 x10E6/uL
same,HEMATOCRIT,[4],35.1%
same,HEMOGLOBIN,[4],14.37 G/DL
same,LEUKOCYTE COUNT,[4],14.2 x10E3/uL
same,LYMPHOCYTE,[4],88%
same,MEAN CORPUSCULAR HEMOGLOBIN,[4],24.67 pg
same,MEAN CORPUSCULAR HEMOGLOBIN CONCENTRATION,[4],40.97 G/DL
same,MEAN CORPUSCULAR VOLUME,[4],60.3 fL
same,MONOCYTE,[4],2%
same,NEUTROPHIL,[4],10%
same,PLATELET COUNT,[4],1018.67 x10E3/uL
same,ALANINE AMINOTRANSFERASE,[4],34.33 u/L
same,ALBUMIN,[4],3.6 G/DL
same,ALKALINE PHOSPHATASE,[4],348.33 u/L
same,ASPARTATE AMINOTRANSFERASE,[4],58 u/L
same,BLOOD UREA NITROGEN,[4],15 mg/dL
same,CHLORIDE,[4],101 MEQ/L
same,CHOLESTEROL,[4],62.67 mg/dL
same,CREATINE PHOSPHOKINASE,[4],122.67 u/L
same,CREATININE,[4],0.47 mg/dL
same,GLUCOSE,[4],155.33 mg/dL
same,PHOSPHORUS,[4],10 mg/dL
same,POTASSIUM,[4],6.3 MEQ/L
same,SODIUM,[4],144.67 MEQ/L
same,TOTAL BILIRUBIN,[4],0.37 mg/dL
same,TOTAL PROTEIN,[4],5.8 G/DL
